As a reminder, the inhibition is the change of the read-out against control, counted positive when it falls. A word on the IC50: it is the concentration that inhibits the measured activity by half. One may read the Ki as the equilibrium dissociation constant of an inhibitor or competing ligand from its target.

Values joined by “and” are separate entries in the source; they are usually repeats but may differ in a detail not shown here. Equal values may be shown once. Read-outs that look alike come from different tables or passages of the source.

The values that follow come from PMC6428247, “Potent inhibitors of equine steroid isomerase EcaGST A3-3” (PLoS ONE, 2019).

Experiment [1] deals with T1, HsaGST M2-2 (Homo sapiens, UniProt P28161).
T1 construct: made in house
T1 sequence (P28161 1-218): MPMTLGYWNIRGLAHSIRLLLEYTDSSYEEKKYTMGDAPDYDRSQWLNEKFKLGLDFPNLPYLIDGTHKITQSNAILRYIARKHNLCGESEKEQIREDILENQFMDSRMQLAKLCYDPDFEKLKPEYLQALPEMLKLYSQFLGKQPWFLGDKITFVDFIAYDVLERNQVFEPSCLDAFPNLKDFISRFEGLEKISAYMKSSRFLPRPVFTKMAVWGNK
The experiment is described as follows: Inhibition of HsaGST M2-2 CDNB activity. The class given is biochemical. The method, then: (§1) EcaGST A3-3 [10], HsaGST A3-3 [12] and HsaGST M2-2 [13] were cloned, expressed and purified as described previously. Protein concentration was determined by means of the Bradford assay.
(§2) The conjugation of GSH with the electrophilic substrate CDNB was used as a biochemical assay for general activity measurements. Screening of the US Drug library for inhibition was done in triplicates in 96-well plates in a Thermo Scientific Multiskan GO spectrophotometer. The conjugation activity at 30°C was monitored at 340 nm for 1 min in 0.1 M sodium phosphate buffer at pH 6.5 and 10 μM inhibitor concentration in a final volume of 300 μL. Initial concentrations of GSH and CDNB were 1 mM.
(§3) For understanding the effects of pharmacological interventions based on GST inhibitors, it is important to know the selectivity among the numerous GSTs. […] All values were determined with CDNB, which is a common substrate for all the enzymes.

Experiment [2] deals with T2, EcaGST A3-3 (Equus caballus, UniProt M9ZT87). Put plainly: Inhibition of EcaGST A3-3 steroid double-bond isomerase activity with Δ^5-AD. It is filed as biochemical, Equus ferus caballus.
T2 sequence (M9ZT87 entry or part of it): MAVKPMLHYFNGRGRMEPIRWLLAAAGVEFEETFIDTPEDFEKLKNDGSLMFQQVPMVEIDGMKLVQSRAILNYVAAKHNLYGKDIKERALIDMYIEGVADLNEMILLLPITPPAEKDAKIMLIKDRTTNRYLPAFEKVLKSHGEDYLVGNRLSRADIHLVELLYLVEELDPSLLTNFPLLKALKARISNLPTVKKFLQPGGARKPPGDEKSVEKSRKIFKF
In experiment [3] the test system is HsaGST S1-1. More on the design: method as in PMID 25603235. As to conditions: 1 mM GSH, 1 mM CDNB, pH 6.5, 30°C, cited from earlier work; for Inhibition (%) of HsaGST S1-1: 10 μM inhibitor; for IC50: CDNB activity.
The subject of experiment [4] is HsaGST P1-1. More on the design: method as in PMID 23769903. As to conditions: 1 mM GSH, 1 mM CDNB, pH 6.5, 30°C, cited from earlier work; for Inhibition (%) of HsaGST P1-1: 3.3 μM inhibitor; for IC50: CDNB activity.
Experiment [5] has as its target T2, EcaGST A3-3. The experiment is described as follows: Inhibition of EcaGST A3-3 activity, GSH conjugation with CDNB. It is filed as biochemical, Equus ferus caballus. The following applies: for Inhibition (%) of EcaGST A3-3: 10 μM inhibitor, sodium phosphate pH 6.5, 30°C; for inhibition at 10 µM: pH 6.5, read-out: Inhibition (%) of EcaGST A3-3, 10 μM inhibitor, 1 mM GSH, 1 mM CDNB, sodium phosphate pH 6.5, 30°C. The method, then: The final solvent concentration in the reaction system was kept at 5% (v/v) as a maximum.
as §2
Assay conditions for inhibition measurements of enzyme activity with CDNB were the following: EcaGST A3-3 15 nM, initial concentrations of GSH and CDNB 1 mM, inhibitor concentrations varying from 0.029 μM to 15 μM, in 100 mM Na2HPO4/NaH2PO4 at pH 6.5.
The reactions were followed spectrophotometrically for 1 min at 30°C using a Shimadzu UV-2501 PC spectrophotometer (Shimadzu Inc.). All experiments included triplicate measurements in each data point.
The equation for competitive inhibition fitted by non-linear regression was v=Vmax[S]/KM(1+[I]/Ki)+[S] where [S] is the substrate concentrations and [I] is the inhibitor concentration.

In experiment [6] the target is T3, HsaGST A3-3 (Homo sapiens, UniProt Q16772).
T3 construct: made in house
T3 sequence (Q16772 1-222): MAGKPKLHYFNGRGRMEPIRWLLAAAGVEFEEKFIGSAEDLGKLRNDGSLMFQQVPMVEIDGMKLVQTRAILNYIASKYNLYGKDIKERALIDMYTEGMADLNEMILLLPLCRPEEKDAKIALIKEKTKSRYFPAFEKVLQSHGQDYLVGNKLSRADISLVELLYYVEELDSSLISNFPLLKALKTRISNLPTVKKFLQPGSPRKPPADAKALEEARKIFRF
More on the design: method as in PMID 23769903. As to conditions: CDNB activity, 1 mM GSH, 1 mM CDNB, pH 6.5, 30°C; read-out: IC50 HsaGST A3-3 (published); cited from earlier work.

The target in experiment [7] is T3, HsaGST A3-3. The experiment is described as follows: Inhibition of HsaGST A3-3 CDNB activity. The following applies: for Inhibition (%) of HsaGST A3-3: 10 μM inhibitor. The class given is biochemical. The procedure: as §1, §2, §3
[8] abbreviates: 10 μM inhibitor, 1 mM GSH, 1 mM CDNB, pH 6.5, 30°C, read-out: Inhibition (%) of HsaGST M2-2.
[9] abbreviates: 1 mM CDNB, 1 mM GSH, 100 mM sodium phosphate pH 6.5, 30°C, read-out: IC50 EcaGST A3-3, substrate CDNB.
[10] abbreviates: pH 6.5, 10 μM inhibitor, 1 mM GSH, 1 mM CDNB, pH 6.5, 30°C, read-out: Inhibition (%) of HsaGST A3-3.
Setting [11] is: 10 μM inhibitor, 1 mM GSH, 1 mM CDNB, pH 6.5, 30°C.
The mark [12] stands for this setting: 1 mM GSH, 1 mM CDNB, pH 6.5, 30°C.

In the case of `Oc1c(Cl)cc(Cl)cc1Sc1cc(Cl)cc(Cl)c1O` [Bithionate sodium], the inhibition at 10 µM in experiment [1] (setting [8]) was determined as 73%; in experiment [7] (setting [10]), 47%. Moreover, the IC50 is 1600 ± 310 nM in experiment [2], 12000 nM in experiment [3], 1900 ± 520 nM in experiment [5] (setting [9]) and 700 nM in experiment [6]. Further, the “Inhibition (%) of HsaGST S1-1” value in experiment [3] is recorded as 47%. In experiment [4], the “Inhibition (%) of HsaGST P1-1” value is given as 10%. The “Inhibition (%) of EcaGST A3-3” value in experiment [5] (1 mM GSH, 1 mM CDNB) was 64 ± 22%.
Regarding `C=C(CC)C(=O)c1ccc(OCC(=O)O)c(Cl)c1Cl` [Ethacrynic acid], the “Inhibition (%) of HsaGST M2-2” value in experiment [1] (setting [11]) is “low or negligible effects”. For the same compound, the results for the inhibition at 10 µM in experiment [1] (setting [8]), in experiment [5] and in experiment [7] (setting [10]) were 0%, 94 to 100% and 94 to 100%, respectively. Also, the IC50 in experiment [2] is 250 ± 100 nM; in experiment [3], 44000 nM; in experiment [4], 4900 nM; in experiment [5] it was 180 ± 67 nM; in experiment [6], 400 nM. The “IC50 EcaGST A3-3, substrate Δ^5-AD” value in experiment [2] (0.1 mM Δ^5-AD, 1 mM GSH, 25 mM sodium phosphate pH 8.0, 30°C) was “submicromolar range”. For the same compound, the “Hill coefficient, Δ^5-AD inhibition” value in experiment [2] (dose-response curve, substrate Δ^5-AD, mean ± SD) amounted to 1.0. For the same compound, the figures for the “Inhibition (%) of HsaGST S1-1” value in experiment [3] and in experiment [3] (listed as ethacrynic acid) were 32% and “low or negligible effects”, respectively. In addition, the entries for the “Inhibition (%) of HsaGST P1-1” value in experiment [4] and in experiment [4] (listed as ethacrynic acid) were 25% and “low or negligible effects”, respectively. Besides, in experiment [5] (1 mM GSH, 1 mM CDNB), the “Inhibition (%) of EcaGST A3-3” value stood at 100%. Besides, in experiment [5] (CDNB varied, 1 mM GSH), the “Inhibition modality, substrate CDNB” value is “Competitive”. For the same compound, the inhibition constant Ki in experiment [5] (Ki, EcaGST A3-3, substrate CDNB, CDNB varied, 1 mM GSH, 0.25 μM inhibitor) is 140 nM and 141 nM. In addition, the “Hill coefficient, CDNB inhibition” value in experiment [5] (dose-response curve, substrate CDNB, mean ± SD) came out at 2.5±0.21. Also, the “Inhibition (%) of HsaGST A3-3” value in experiment [7] (setting [12]) turned out to be 94%.
`Oc1c(Cl)cc(Cl)c(Cl)c1Cc1c(O)c(Cl)cc(Cl)c1Cl` [Hexachlorophene]: the IC50 is 1500 nM in experiment [1]; 440 ± 220 nM in experiment [2]; 8900 nM in experiment [3]; 9700 nM in experiment [4]; 320 ± 36 nM in experiment [5]; 160 nM in experiment [6]. The inhibition at 10 µM in experiment [1] (pH 6.5, read-out: Inhibition (%) of HsaGST M2-2) was 98%; in experiment [5], 96 ± 1.1%; in experiment [7] (pH 6.5, read-out: Inhibition (%) of HsaGST A3-3), 89%. Moreover, in experiment [3], the “Inhibition (%) of HsaGST S1-1” value was 61%. The “Inhibition (%) of HsaGST P1-1” value in experiment [4] is listed as 34%.
In the case of `O=C([O-])c1ccccc1-c1c2cc(Br)c(=O)cc-2oc2[c]([Hg+])c([O-])c(Br)cc12.[Na+].[Na+].[OH-]` [Merbromin], in experiment [1] (setting [11]), the “Inhibition (%) of HsaGST M2-2” value is on record as 85%. For the same compound, the IC50 in experiment [1] (CDNB activity, 1 mM GSH, 1 mM CDNB, pH 6.5, 30°C, read-out: IC50 HsaGST M2-2) was 4900 nM; in experiment [2] (read-out: IC50 EcaGST A3-3, substrate Δ^5-AD, 0.1 mM Δ^5-AD, 1 mM GSH, 25 mM sodium phosphate pH 8.0, 30°C) it was 2500 ± 480 nM; in experiment [3], 3300 nM; in experiment [4], 3100 nM; in experiment [5] (setting [9]), 2600 ± 630 nM; in experiment [6] it was 660 nM. In addition, in experiment [3], the “Inhibition (%) of HsaGST S1-1” value was 85%. The “Inhibition (%) of HsaGST P1-1” value in experiment [4] was 44%. Besides, the “Inhibition (%) of EcaGST A3-3” value in experiment [5] (1 mM GSH, 1 mM CDNB) came out at 95 ± 18%. Moreover, the “Inhibition (%) of HsaGST A3-3” value in experiment [7] (setting [12]) came to 98%.
